Measurements taken from patent US20100098746A1, “COMPOSITIONS AND METHODS FOR TREATING PERIODONTAL DISEASE COMPRISING CLONIDINE, SULINDAC AND/OR FLUOCINOLONE” (Warsaw Orthopedic, Inc., priority 2008, published 2010).

Experiments:
[1] = tested on: inflammation induced in minipigs; details: high dose clonidine (150 μg), injected; days 1, 3 and 4 post-surgery
Excerpt: In a separate experiment, inflammation was induced in minipigs and the minipigs were given clonidine, bupivacaine, or morphine. The surgical site was reviewed for inflammation while the minipigs were anesthesized and on day 4. Scoring of inflammation was reviewed in the area of incision for redness with the following scores: 0—no redness; 1—slightly red limited to area of incision; 2—massive spread redness and swelling with the following scores 0—no swelling; 1—slightly swelling; 3—massive swelling. Redness and swelling were summed up so the minimum score is 0 and maximum score is 4. […] The low dose clonidine given was 75 μg.

[2] = tested on: thermal hyperalgesia, Bennett Model; details: subcutaneously at 0.02 mg/kg/day
Procedure: (§1) The efficacy of a five Month Clonidine/Polymer Drug Depot in the Rat Chronic Constriction Injury Model was evaluated. The animal model was the Bennett Model (Wistar rat). The purpose: To determine whether a five month polymer clonidine-eluting depot can improve pain associated behavioral responses in a rat model of neuropathic pain with an inflammatory component.
(§2) Experimental Design: Four loose chromic gut ligatures, 1 mm apart, were tied around the common sciatic nerve at mid-thigh. Each animal received treatment of test or control article—according to the dosing described in Table 5.
(§3) The present study was conducted for a period of 64 days and employed the following two tests: (1) the Hargreaves test; and (2) the von Frey test. The Hargreaves Tests of Thermal Hyperalgesia were conducted on days 7, 14, 21, 28, 35, 42, 49, 56 and 63. The von Frey monofilament test of mechanical allodynia (performed the day following Thermal testing) were conducted on days-8, 15, 22, 29, 36, 43, 50, 57 and 64.

[3] = tested on: mechanical allodynia, Bennett Model; details: subcutaneously at 0.02 mg/kg/day
Procedure: as §1, §2, §3

[4] = tested on: murine RAW NO+ cell line; details: for inhibitory effects on osteoclast differentiation and resorption: clonidine tested at 100, 10, 1, 0.1 μM, sulindac at 140, 70, 35, 17.5, 8.75 μM, RANK L 30 ng/ml; for lowest inhibitory concentration: osteoclast differentiation and resorption
Procedure: The purpose of this set of experiments was to narrow the number of periodontal candidates by determining the lowest dose of the drug that inhibits or blocks osteoclast differentiation and/or resorption.
Cell culture complete media was prepared by adding 10% FBS to high glucose DMEM. • 2. A nitric oxide-containing murine RAW NO+ cell line, f frozen in DMSO-containing medium under liquid nitrogen, was used for these assays. • 3. Cells were thawed in a 37° C. water bath and resuspended in complete media (see #1 above). • 4. The cells were plated in a 175 cm^2 polystyrene, white top, non-adherent culture flask at a density of 1×10^4 cells/cm^2 and allowed to settle overnight (Day-1, Table G). • 5. The media was changed approximately 24 hours after the initial plating (Day 0, Table G). • 6. After approximately two days of proliferation, the cells were harvested with a cell scraper, collected in a 50 mL conical tube and centrifuged at 1000 rpm to pellet the cells. • 7. The cell pellets were resuspended in 4 mL complete media, counted with a hemocytometer and plated at a density of 0.125×10^4 cells/0.25 ml/well in a 16 well osteologic assay slide (Day 1, Table G). • 8. The cells were allowed to adhere for 24 hours, the media was removed and fresh differentiation media was prepared that contained complete media+RANK L (30 ng/ml; Pepro Tech #315-11)+/−drug (Day 2, Table G). […] Step 8 was repeated on days 5 and 7 (Table G). • 10. On day 9 the plates were harvested by removing the media, rinsing with dH2O and treated with bleach for 7 minutes. • 11. The bleach was disposed of in the drug waste container and the wells and gaskets were removed from the slide. • 12. The plates were rinsed with H2O 5 times, dried and analyzed for matrix degradation as described below
The clonidine concentrations tested were 100 μM, 10 μM, 1 μM, 0.1 μM and the sulindac concentrations tested were 140 μM, 70 μM, 35 μM, 17.5 μM, and 8.75 μM.

[5] = tested on: neuropathic pain, CCI model; experiment: 2-month chronic constriction injury (CCI) model of neuropathic pain (fluocinolone), thermal paw withdrawal latency and mechanical threshold; format: in vivo
Procedure: A 2-month chronic constriction injury (CCI) model of neuropathic pain was used to evaluate different formulations of a corticosteroid, fluocinolone, encapsulated in bioerodable polymers compared to fluocinolone given subcutaneously (SC). Different formulations as provided in Table B below were evaluated for reducing pain-associated behaviors: Thermal paw withdrawal latency was evaluated at baseline 7, 14, 21, 28, 35, 42, 49, and 56 days post-operatively, while mechanical threshold was evaluated at 8, 15, 22, 29, 36, 43, 50, and 57 days post-operatively. […] The pain of periodontal disease is due to the inflammation. […] Mechanical allodynia was measured using von Frey monofilaments (Stoelting, Wood Dale, Ill.) with varying stiffness (2.0-15.0 g) on Days 1, 8, 15, 22, 29, 36, 43, 50 and 57 as described previously. […] The 50% paw withdrawal threshold response was determined by a sequential increasing and/or decreasing of the stimulus strength (the “up-down method” of Dixon). […] The 50% paw withdrawal threshold was calculated using the formula: 10 (Xf+kd)/10,000, where Xf is the final von Frey filament used (log units), k is a value that analyzes the response pattern (taken from the table published by Chaplan et al.), and d is the mean difference between stimuli (log units). The mean and standard error of the mean (SEM) were determined for each treatment group.

[6] = tested on: thermal hyperalgesia, Bennett Model; experiment: Rat chronic constriction injury model, Hargreaves test of thermal hyperalgesia (sulindac); format: in vivo, Wistar rat; details: intraperitoneally at 0.4 mg/kg/day
Procedure: (§4) The efficacy of a 5 Month Sulindac/Polymer Drug Depot in the Rat Chronic Constriction Injury Model was evaluated. The animal model was the Bennett Model (Wistar rat). The purpose: To determine whether a 5 month polymer sulindac-eluting depot can improve pain associated behavioral responses in a rat model of neuropathic pain.
(§5) Experimental Design: Four loose chromic gut ligatures, 1 mm apart, were tied around the common sciatic nerve at mid-thigh. Each animal received treatment of test or control article—according to the dosing described in Table 10.
(§6) To date, the present study was conducted for a period of 57 days and employed the following two tests: (1) the Hargreaves test on days 7, 14, 21, 28, 35, 42, 49, and 56; and (2) the von Frey test on days 8, 15, 22, 29, 36, 43, 50, and 57.

[7] = tested on: mechanical allodynia, Bennett Model; experiment: Rat chronic constriction injury model, von Frey test of mechanical allodynia (sulindac); format: in vivo, Wistar rat; details: intraperitoneally at 0.4 mg/kg/day
Procedure: as §4, §5, §6

Clc1cccc(Cl)c1N=C1NCCN1 [clonidine, 2,6-dichloro-N-2-imidazolidinyldenebenzenamine]
inflammation score (redness + swelling, 0 to 4) [1]: very low | pain behavioral response, thermal hyperalgesia, compared to unloaded polymer depots [2]: consistently reduced the behavioral response | pain behavioral response (percentage of baseline), thermal hyperalgesia ([2]; unloaded polymer depots 45%): 58% | pain behavioral response, mechanical allodynia, compared to unloaded polymer depots [3]: reduced the behavioral response | osteoclast differentiation and bone resorption compared to RANK only treated control wells ([4]; clonidine at 100 μM and 10 μM): significantly decreased | inhibitory effects on osteoclast differentiation and resorption [4]: significant inhibitory effects | lowest inhibitory concentration [4]: 10 µM

CC1(C)O[C@@H]2C[C@H]3[C@@H]4C[C@H](F)C5=CC(=O)C=C[C@]5(C)[C@@]4(F)[C@@H](O)C[C@]3(C)[C@]2(C(=O)CO)O1 [fluocinolone, 6α-,9α-Difluoro-16 α-hydroxyprednisolone 16,17-acetonide]
pain threshold [5]: reduced pain threshold

CC1=C(CC(=O)O)c2cc(F)ccc2/C1=C\c1ccc([S+](C)[O-])cc1 (stereo not drawn) [sulindac]
pain behavioral response, thermal hyperalgesia, compared to unloaded polymer depot (85/15 PLGA Control) [6]: consistently reduced the behavioral response | inhibitory effects on osteoclast differentiation and resorption [4]: significant inhibitory effects | lowest inhibitory concentration [4]: 140.3 µM | pain behavioral response, mechanical allodynia, compared to unloaded polymer depots (85/15 PLGA Control) [7]: reduced the behavioral response
